According to ChEMBL document CHEMBL1201862, “PubChem BioAssay data set” (2004):
Values belong to the molecule of their own block, whether it stands above or below them. Activity calls are given as the source filed them.

Key:
[1] = biological target: Hepatocyte growth factor receptor (Homo sapiens, UniProt P08581); assay type: functional;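 note: kinase panel profiling across the kinome, with MET as the panel member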
[2] = HepG2 cell cytotoxicity, dose response, cytotoxicity control for Shn3 inhibitor project, CellTiter-Glo, cherry-picked (AID 624134); assay type: functional, cell-based
[3] = biological target: Cell division cycle 7-related protein kinase (Homo sapiens, UniProt O00311); assay type: functional;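 note: value obtained from a kinome-wide kinase panel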
[4] = biological target: Calcium/calmodulin-dependent protein kinase type II subunit delta (Homo sapiens, UniProt Q13557); assay type: functional
[5] = biological target: T1, Histone-lysine N-methyltransferase NSD2 (Homo sapiens, UniProt O96028); assay type: biochemical
T1 sequence (O96028 whole entry): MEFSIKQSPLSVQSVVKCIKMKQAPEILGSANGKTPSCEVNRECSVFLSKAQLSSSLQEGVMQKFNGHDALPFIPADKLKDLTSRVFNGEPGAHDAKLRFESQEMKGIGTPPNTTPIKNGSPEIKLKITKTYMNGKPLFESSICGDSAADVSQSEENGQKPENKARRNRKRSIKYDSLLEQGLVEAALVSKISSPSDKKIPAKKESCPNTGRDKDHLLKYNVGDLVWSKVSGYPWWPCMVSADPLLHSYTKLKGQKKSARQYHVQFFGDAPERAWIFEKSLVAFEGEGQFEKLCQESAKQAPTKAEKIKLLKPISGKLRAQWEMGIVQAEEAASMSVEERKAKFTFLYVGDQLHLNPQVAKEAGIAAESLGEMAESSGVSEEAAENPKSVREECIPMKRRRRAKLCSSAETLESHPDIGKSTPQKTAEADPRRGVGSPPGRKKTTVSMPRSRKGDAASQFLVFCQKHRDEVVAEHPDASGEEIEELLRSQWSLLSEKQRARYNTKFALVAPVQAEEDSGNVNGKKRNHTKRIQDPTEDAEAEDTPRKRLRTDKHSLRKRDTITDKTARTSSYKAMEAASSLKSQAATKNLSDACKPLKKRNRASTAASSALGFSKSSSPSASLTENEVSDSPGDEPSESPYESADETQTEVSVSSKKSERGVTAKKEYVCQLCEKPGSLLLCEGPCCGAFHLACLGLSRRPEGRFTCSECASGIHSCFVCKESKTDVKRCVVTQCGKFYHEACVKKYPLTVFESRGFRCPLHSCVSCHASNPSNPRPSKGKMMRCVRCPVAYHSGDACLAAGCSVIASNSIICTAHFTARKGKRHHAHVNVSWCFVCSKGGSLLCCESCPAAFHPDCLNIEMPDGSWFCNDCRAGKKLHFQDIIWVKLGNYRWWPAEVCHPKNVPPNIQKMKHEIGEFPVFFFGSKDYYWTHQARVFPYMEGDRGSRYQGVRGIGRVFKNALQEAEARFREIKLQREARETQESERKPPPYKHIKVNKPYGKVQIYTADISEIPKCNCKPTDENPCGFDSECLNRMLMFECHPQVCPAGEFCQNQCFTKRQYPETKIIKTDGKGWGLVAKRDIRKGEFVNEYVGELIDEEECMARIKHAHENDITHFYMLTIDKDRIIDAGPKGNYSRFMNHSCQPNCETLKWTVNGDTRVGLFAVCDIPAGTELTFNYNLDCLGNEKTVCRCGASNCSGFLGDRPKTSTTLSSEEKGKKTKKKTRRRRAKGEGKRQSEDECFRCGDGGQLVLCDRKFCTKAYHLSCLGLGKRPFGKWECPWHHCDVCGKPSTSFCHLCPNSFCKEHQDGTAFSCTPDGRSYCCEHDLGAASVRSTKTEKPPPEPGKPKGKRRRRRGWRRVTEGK

[6] = biological target: T2, Sentrin-specific protease 6 (Homo sapiens, UniProt Q9GZR1); assay type: functional;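 note: Luminescence-based dose-response confirmatory assay of SENP6 inhibition, following up an ultra-high-throughput screen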
T2 sequence (Q9GZR1 whole entry): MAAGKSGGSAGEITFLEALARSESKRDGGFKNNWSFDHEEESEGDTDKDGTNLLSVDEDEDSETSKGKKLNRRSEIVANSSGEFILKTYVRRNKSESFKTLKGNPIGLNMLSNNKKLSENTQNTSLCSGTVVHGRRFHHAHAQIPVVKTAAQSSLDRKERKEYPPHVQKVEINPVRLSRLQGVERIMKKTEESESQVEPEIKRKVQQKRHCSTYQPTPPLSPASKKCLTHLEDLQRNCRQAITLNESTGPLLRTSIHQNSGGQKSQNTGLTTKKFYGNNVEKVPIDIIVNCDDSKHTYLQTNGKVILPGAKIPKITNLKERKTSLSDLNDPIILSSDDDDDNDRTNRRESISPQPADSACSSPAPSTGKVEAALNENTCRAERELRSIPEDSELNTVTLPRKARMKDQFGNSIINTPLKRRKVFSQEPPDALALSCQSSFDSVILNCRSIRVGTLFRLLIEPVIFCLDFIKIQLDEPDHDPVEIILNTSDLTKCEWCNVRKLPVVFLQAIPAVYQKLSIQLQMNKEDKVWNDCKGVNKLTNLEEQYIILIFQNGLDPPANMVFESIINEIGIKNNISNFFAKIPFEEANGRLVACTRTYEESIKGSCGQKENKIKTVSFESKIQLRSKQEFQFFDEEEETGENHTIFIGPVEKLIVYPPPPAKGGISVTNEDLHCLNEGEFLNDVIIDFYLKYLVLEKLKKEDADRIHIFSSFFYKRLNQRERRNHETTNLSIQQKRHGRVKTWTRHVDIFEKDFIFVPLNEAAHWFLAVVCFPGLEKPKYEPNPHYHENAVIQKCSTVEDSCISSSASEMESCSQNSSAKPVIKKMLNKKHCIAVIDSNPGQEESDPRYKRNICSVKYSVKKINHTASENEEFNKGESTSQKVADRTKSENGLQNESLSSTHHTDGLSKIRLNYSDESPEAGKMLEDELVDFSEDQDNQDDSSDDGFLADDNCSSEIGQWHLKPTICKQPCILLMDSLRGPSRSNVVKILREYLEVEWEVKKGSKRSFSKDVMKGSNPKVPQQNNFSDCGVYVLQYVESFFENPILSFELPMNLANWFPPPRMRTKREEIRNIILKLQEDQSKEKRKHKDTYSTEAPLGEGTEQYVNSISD

Cell division cycle 7-related protein kinase, sequence (O00311 whole entry): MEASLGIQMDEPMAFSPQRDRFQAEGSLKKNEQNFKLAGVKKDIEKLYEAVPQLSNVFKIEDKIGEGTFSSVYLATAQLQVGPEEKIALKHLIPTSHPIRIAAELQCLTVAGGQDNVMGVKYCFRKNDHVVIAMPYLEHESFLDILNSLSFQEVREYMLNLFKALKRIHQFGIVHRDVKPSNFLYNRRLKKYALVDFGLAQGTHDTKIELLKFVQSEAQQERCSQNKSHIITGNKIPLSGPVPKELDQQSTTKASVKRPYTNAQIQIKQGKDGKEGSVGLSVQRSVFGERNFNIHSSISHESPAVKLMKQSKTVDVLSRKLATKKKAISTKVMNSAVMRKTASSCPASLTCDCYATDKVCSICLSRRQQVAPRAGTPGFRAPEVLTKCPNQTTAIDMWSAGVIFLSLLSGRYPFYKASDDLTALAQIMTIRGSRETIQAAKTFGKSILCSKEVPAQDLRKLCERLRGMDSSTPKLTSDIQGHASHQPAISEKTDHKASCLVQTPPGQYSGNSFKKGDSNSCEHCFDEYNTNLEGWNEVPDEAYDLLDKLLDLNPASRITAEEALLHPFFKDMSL
Calcium/calmodulin-dependent protein kinase type II subunit delta, sequence (Q13557 whole entry): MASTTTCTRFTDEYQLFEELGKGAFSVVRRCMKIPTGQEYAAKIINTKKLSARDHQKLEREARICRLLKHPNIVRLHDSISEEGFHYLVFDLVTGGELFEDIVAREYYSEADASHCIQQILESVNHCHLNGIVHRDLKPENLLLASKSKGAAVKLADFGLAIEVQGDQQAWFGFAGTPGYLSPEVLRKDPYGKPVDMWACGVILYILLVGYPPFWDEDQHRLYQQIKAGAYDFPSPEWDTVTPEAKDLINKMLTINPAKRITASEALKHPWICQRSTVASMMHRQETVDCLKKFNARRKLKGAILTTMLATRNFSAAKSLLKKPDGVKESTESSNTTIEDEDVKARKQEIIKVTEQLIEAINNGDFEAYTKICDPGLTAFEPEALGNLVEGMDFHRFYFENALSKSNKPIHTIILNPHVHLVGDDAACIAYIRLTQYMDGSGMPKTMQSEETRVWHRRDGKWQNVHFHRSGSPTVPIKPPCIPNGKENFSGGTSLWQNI
Hepatocyte growth factor receptor, sequence (P08581 whole entry): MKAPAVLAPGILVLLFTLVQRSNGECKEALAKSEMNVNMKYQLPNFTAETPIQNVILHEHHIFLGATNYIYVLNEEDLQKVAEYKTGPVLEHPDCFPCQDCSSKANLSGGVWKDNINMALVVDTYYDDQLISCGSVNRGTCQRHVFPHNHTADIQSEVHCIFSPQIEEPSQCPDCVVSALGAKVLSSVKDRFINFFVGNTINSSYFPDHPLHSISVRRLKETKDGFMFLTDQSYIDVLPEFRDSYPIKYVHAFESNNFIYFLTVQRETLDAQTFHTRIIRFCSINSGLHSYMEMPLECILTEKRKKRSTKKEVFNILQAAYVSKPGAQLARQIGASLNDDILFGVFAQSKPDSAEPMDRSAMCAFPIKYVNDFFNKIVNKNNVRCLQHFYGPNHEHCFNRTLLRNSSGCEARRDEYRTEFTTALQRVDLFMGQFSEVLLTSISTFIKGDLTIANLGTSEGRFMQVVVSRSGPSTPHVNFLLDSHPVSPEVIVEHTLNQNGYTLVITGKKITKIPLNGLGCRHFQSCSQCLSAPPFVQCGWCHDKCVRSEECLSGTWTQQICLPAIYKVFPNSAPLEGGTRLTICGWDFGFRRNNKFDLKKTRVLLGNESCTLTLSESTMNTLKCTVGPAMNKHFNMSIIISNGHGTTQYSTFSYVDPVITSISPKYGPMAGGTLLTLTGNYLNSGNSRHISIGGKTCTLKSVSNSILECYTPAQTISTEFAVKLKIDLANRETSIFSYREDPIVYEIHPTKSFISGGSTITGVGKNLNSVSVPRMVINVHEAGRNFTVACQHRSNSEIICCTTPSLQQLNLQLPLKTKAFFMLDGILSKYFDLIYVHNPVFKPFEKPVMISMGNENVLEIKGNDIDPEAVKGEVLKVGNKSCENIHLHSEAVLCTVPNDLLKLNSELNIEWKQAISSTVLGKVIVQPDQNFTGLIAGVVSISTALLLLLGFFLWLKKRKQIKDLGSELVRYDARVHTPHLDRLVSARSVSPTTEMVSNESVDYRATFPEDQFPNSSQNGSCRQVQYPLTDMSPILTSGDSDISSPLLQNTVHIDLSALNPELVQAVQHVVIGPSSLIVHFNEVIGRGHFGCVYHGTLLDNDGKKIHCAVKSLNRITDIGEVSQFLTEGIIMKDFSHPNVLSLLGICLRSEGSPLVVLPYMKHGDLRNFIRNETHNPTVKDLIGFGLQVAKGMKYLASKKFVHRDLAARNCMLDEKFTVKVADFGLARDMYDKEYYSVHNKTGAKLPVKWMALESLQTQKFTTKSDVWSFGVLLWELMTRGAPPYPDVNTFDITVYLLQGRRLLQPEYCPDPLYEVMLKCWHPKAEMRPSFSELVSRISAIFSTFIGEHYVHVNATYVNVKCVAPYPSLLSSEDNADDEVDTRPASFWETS

Ki [1]: > 2510 nM (inactive)
Compound: O=C(O)C1CN(Cc2ccc(OCc3ccccc3)cc2Cl)C1

Compound: OC(CNCCC1C=Nc2ccccc21)Cn1c2ccc(Cl)cc2c2cc(Cl)ccc21 (stereo not drawn)
AC50 [2]: 9390 nM (active)

Ki [3]: 0.316 nM (active) | pKi [3]: 9.5 | Ki [4]: 251 nM (active) | pKi [4]: 6.6
Compound: NC1CCC(Nc2nc(Cl)cc(-c3c[nH]c4ncccc34)n2)CC1 (stereo not drawn)

AC50 [5]: 6770 nM (active) | IC50 [6]: 805 nM (active)
Compound: COc1ccc(C(=O)c2nccc3cc(OC)c(OC)cc23)cc1OC
